Laboratory results: patent US20020111274A1, “1-alkyl-3-[1-(substituted phenyl) benzotriazol-6-yl] uracils” (BASF Aktiengesellschaft, priority 2000, published 2002)

What was measured:
Parameters in all cases: scale not given here
[1] = test system: IPOHE Morningglory, Ivyleaf; experiment: Postemergence herbicidal evaluation, IPOHE; format: in vivo, Ipomoea hederacea, (L.) Jacq.; conditions: postemergence spray, rated about two-three weeks after treatment
Procedure, shortened: (§1)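 Postemergence spray, 40 psi nozzle, on ~2-week seedlings. Carrier: acetone/water 80/20, 1.0% methylated seed oil; dose ~0.006–0.400 kg/ha. Scored visually at 2–3 weeks.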

[2] = test system: CHEAL Lambsquarters, Common; experiment: Preemergence herbicidal evaluation, CHEAL; format: in vivo, Chenopodium album, L.; conditions: preemergence
Procedure, shortened: (§2)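 Seeds mixed with potting soil were planted on about one inch of soil in cups, then sprayed with the test compound in aqueous acetone at roughly 0.013 to 0.800 kg per hectare. Plants were kept under standard greenhouse care and injury was rated four to five weeks after treatment.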

ZEAMX Corn, Field [3] = experiment: Preemergence herbicidal evaluation, ZEAMX; format: in vivo, Zea mays, L. (Sammel-Bezeichnung); conditions: preemergence
Procedure, shortened: as §2

CASOB Sicklepod [4] = experiment: Preemergence herbicidal evaluation, CASOB; format: in vivo, Cassia obtusifolia, L.; conditions: preemergence
Procedure, shortened: as §2

GALAP Galium [5] = experiment: Postemergence herbicidal evaluation, GALAP; format: in vivo, Galium aparine; conditions: postemergence spray, rated about two-three weeks after treatment
Procedure, shortened: as §1

[6] = test system: TRZAWR Wheat, Winter, cv Riband; experiment: Preemergence herbicidal evaluation, TRZAWR; format: in vivo, Triticum aestivum; conditions: preemergence
Procedure, shortened: as §2

AMBEL Ragweed, Common [7] = experiment: Preemergence herbicidal evaluation, AMBEL; format: in vivo, Ambrosia artemisifolia, L.; conditions: preemergence
Procedure, shortened: as §2

[8] = test system: CHEAL Lambsquarters, Common; experiment: Postemergence herbicidal evaluation, CHEAL; format: in vivo, Chenopodium album, L.; conditions: postemergence spray, rated about two-three weeks after treatment
Procedure, shortened: as §1

ECHOG Barnyardgrass [9] = experiment: Postemergence herbicidal evaluation, ECHOG; format: in vivo, Echinochloa crus-galli, (L.) Beau; conditions: postemergence spray, rated about two-three weeks after treatment
Procedure, shortened: as §1

ABUTH Velvetleaf [10] = experiment: Preemergence herbicidal evaluation, ABUTH; format: in vivo, Abutilon theophrasti, Medic.; conditions: preemergence
Procedure, shortened: as §2

GALAP Galium [11] = experiment: Preemergence herbicidal evaluation, GALAP; format: in vivo, Galium aparine; conditions: preemergence
Procedure, shortened: as §2

GLXMAW Soybean, Williams [12] = experiment: Postemergence herbicidal evaluation, GLXMAW; format: in vivo, Glycine max, (L.) Merr. cv Williams; conditions: postemergence spray, rated about two-three weeks after treatment
Procedure, shortened: as §1

ZEAMX Corn, Field [13] = experiment: Postemergence herbicidal evaluation, ZEAMX; format: in vivo, Zea mays, L. (Sammel-Bezeichnung); conditions: postemergence spray, rated about two-three weeks after treatment
Procedure, shortened: as §1

ORYSAT Rice, Tebonnet [14] = experiment: Preemergence herbicidal evaluation, ORYSAT; format: in vivo, Oryza sativa, (L.); conditions: preemergence
Procedure, shortened: as §2

SETVI Foxtail, Green [15] = experiment: Postemergence herbicidal evaluation, SETVI; format: in vivo, Setaria viridis, (L.) Beau; conditions: postemergence spray, rated about two-three weeks after treatment
Procedure, shortened: as §1

SETVI Foxtail, Green [16] = experiment: Preemergence herbicidal evaluation, SETVI; format: in vivo, Setaria viridis, (L.) Beau; conditions: preemergence
Procedure, shortened: as §2

ECHOG Barnyardgrass [17] = experiment: Preemergence herbicidal evaluation, ECHOG; format: in vivo, Echinochloa crus-galli, (L.) Beau; conditions: preemergence
Procedure, shortened: as §2

[18] = test system: TRZAWR Wheat, Winter, cv Riband; experiment: Postemergence herbicidal evaluation, TRZAWR; format: in vivo, Triticum aestivum; conditions: postemergence spray, rated about two-three weeks after treatment
Procedure, shortened: as §1

[19] = test system: IPOHE Morningglory, Ivyleaf; experiment: Preemergence herbicidal evaluation, IPOHE; format: in vivo, Ipomoea hederacea, (L.) Jacq.; conditions: preemergence
Procedure, shortened: as §2

ORYSAT Rice, Tebonnet [20] = experiment: Postemergence herbicidal evaluation, ORYSAT; format: in vivo, Oryza sativa, (L.); conditions: postemergence spray, rated about two-three weeks after treatment
Procedure, shortened: as §1

GLXMAW Soybean, Williams [21] = experiment: Preemergence herbicidal evaluation, GLXMAW; format: in vivo, Glycine max, (L.) Merr. cv Williams; conditions: preemergence
Procedure, shortened: as §2

AMBEL Ragweed, Common [22] = experiment: Postemergence herbicidal evaluation, AMBEL; format: in vivo, Ambrosia artemisifolia, L.; conditions: postemergence spray, rated about two-three weeks after treatment
Procedure, shortened: as §1

CASOB Sicklepod [23] = experiment: Postemergence herbicidal evaluation, CASOB; format: in vivo, Cassia obtusifolia, L.; conditions: postemergence spray, rated about two-three weeks after treatment
Procedure, shortened: as §1

ABUTH Velvetleaf [24] = experiment: Postemergence herbicidal evaluation, ABUTH; format: in vivo, Abutilon theophrasti, Medic.; conditions: postemergence spray, rated about two-three weeks after treatment
Procedure, shortened: as §1

CCc1ccc(-n2nnc3cc(F)c(-n4c(=O)cc(C(F)(F)F)n(C)c4=O)cc32)cc1COC [Example 28]
Postemergence herbicidal rating IPOHE ([1]; 0.008 kg/ha): 9.0
Postemergence herbicidal rating IPOHE ([1]; 0.016 kg/ha): 9.0
Postemergence herbicidal rating IPOHE ([1]; 0.032 kg/ha): 9.0
Postemergence herbicidal rating IPOHE ([1]; 0.062 kg/ha): 9.0
CHEAL herbicidal rating ([2]; rate 0.016 kg/ha): 3.0
CHEAL herbicidal rating ([2]; rate 0.032 kg/ha): 9.0
CHEAL herbicidal rating ([2]; rate 0.062 kg/ha): 9.0
CHEAL herbicidal rating ([2]; rate 0.125 kg/ha): 9.0
ZEAMX herbicidal rating (ZEAMX Corn, Field [3]; rate 0.016 kg/ha): 0.0
ZEAMX herbicidal rating (ZEAMX Corn, Field [3]; rate 0.032 kg/ha): 3.0
ZEAMX herbicidal rating (ZEAMX Corn, Field [3]; rate 0.062 kg/ha): 4.0
ZEAMX herbicidal rating (ZEAMX Corn, Field [3]; rate 0.125 kg/ha): 5.0
CASOB herbicidal rating (CASOB Sicklepod [4]; rate 0.016 kg/ha): 0.0
CASOB herbicidal rating (CASOB Sicklepod [4]; rate 0.032 kg/ha): 0.0
CASOB herbicidal rating (CASOB Sicklepod [4]; rate 0.062 kg/ha): 0.0
Postemergence herbicidal rating GALAP (GALAP Galium [5]; 0.008 kg/ha): 4.0
Postemergence herbicidal rating GALAP (GALAP Galium [5]; 0.016 kg/ha): 4.0
Postemergence herbicidal rating GALAP (GALAP Galium [5]; 0.032 kg/ha): 6.0
Postemergence herbicidal rating GALAP (GALAP Galium [5]; 0.062 kg/ha): 8.0
TRZAWR herbicidal rating ([6]; rate 0.016 kg/ha): 0.0
TRZAWR herbicidal rating ([6]; rate 0.032 kg/ha): 0.0
TRZAWR herbicidal rating ([6]; rate 0.062 kg/ha): 0.0
TRZAWR herbicidal rating ([6]; rate 0.125 kg/ha): 0.0
AMBEL herbicidal rating (AMBEL Ragweed, Common [7]; rate 0.016 kg/ha): 0.0
AMBEL herbicidal rating (AMBEL Ragweed, Common [7]; rate 0.032 kg/ha): 0.0
AMBEL herbicidal rating (AMBEL Ragweed, Common [7]; rate 0.062 kg/ha): 1.0
AMBEL herbicidal rating (AMBEL Ragweed, Common [7]; rate 0.125 kg/ha): 7.0
Postemergence herbicidal rating CHEAL ([8]; 0.008 kg/ha): 2.0
Postemergence herbicidal rating CHEAL ([8]; 0.016 kg/ha): 4.0
Postemergence herbicidal rating CHEAL ([8]; 0.032 kg/ha): 7.0
Postemergence herbicidal rating CHEAL ([8]; 0.062 kg/ha): 9.0
Postemergence herbicidal rating ECHCG (ECHOG Barnyardgrass [9]; 0.008 kg/ha): 0.0
Postemergence herbicidal rating ECHCG (ECHOG Barnyardgrass [9]; 0.016 kg/ha): 0.0
Postemergence herbicidal rating ECHCG (ECHOG Barnyardgrass [9]; 0.032 kg/ha): 1.0
Postemergence herbicidal rating ECHCG (ECHOG Barnyardgrass [9]; 0.062 kg/ha): 1.0
ABUTH herbicidal rating (ABUTH Velvetleaf [10]; rate 0.032 kg/ha): 2.0
ABUTH herbicidal rating (ABUTH Velvetleaf [10]; rate 0.062 kg/ha): 9.0
ABUTH herbicidal rating (ABUTH Velvetleaf [10]; rate 0.125 kg/ha): 9.0
GALAP herbicidal rating (GALAP Galium [11]; rate 0.016 kg/ha): 0.0
GALAP herbicidal rating (GALAP Galium [11]; rate 0.032 kg/ha): 0.0
GALAP herbicidal rating (GALAP Galium [11]; rate 0.062 kg/ha): 0.0
GALAP herbicidal rating (GALAP Galium [11]; rate 0.125 kg/ha): 9.0
Postemergence herbicidal rating GLXMAW (GLXMAW Soybean, Williams [12]; 0.008 kg/ha): 4.0
Postemergence herbicidal rating GLXMAW (GLXMAW Soybean, Williams [12]; 0.016 kg/ha): 5.0
Postemergence herbicidal rating GLXMAW (GLXMAW Soybean, Williams [12]; 0.032 kg/ha): 6.0
Postemergence herbicidal rating GLXMAW (GLXMAW Soybean, Williams [12]; 0.062 kg/ha): 6.5
Postemergence herbicidal rating ZEAMX (ZEAMX Corn, Field [13]; 0.008 kg/ha): 3.5
Postemergence herbicidal rating ZEAMX (ZEAMX Corn, Field [13]; 0.016 kg/ha): 6.0
Postemergence herbicidal rating ZEAMX (ZEAMX Corn, Field [13]; 0.032 kg/ha): 6.0
Postemergence herbicidal rating ZEAMX (ZEAMX Corn, Field [13]; 0.062 kg/ha): 7.5
ORYSAT herbicidal rating (ORYSAT Rice, Tebonnet [14]; rate 0.016 kg/ha): 0.0
ORYSAT herbicidal rating (ORYSAT Rice, Tebonnet [14]; rate 0.032 kg/ha): 0.0
ORYSAT herbicidal rating (ORYSAT Rice, Tebonnet [14]; rate 0.062 kg/ha): 0.0
ORYSAT herbicidal rating (ORYSAT Rice, Tebonnet [14]; rate 0.125 kg/ha): 0.0
Postemergence herbicidal rating SETVI (SETVI Foxtail, Green [15]; 0.008 kg/ha): 0.0
Postemergence herbicidal rating SETVI (SETVI Foxtail, Green [15]; 0.016 kg/ha): 3.0
Postemergence herbicidal rating SETVI (SETVI Foxtail, Green [15]; 0.032 kg/ha): 7.0
Postemergence herbicidal rating SETVI (SETVI Foxtail, Green [15]; 0.062 kg/ha): 9.0
SETVI herbicidal rating (SETVI Foxtail, Green [16]; rate 0.016 kg/ha): 0.0
SETVI herbicidal rating (SETVI Foxtail, Green [16]; rate 0.032 kg/ha): 2.0
SETVI herbicidal rating (SETVI Foxtail, Green [16]; rate 0.062 kg/ha): 4.0
SETVI herbicidal rating (SETVI Foxtail, Green [16]; rate 0.125 kg/ha): 9.0
ECHCG herbicidal rating (ECHOG Barnyardgrass [17]; rate 0.016 kg/ha): 0.0
ECHCG herbicidal rating (ECHOG Barnyardgrass [17]; rate 0.032 kg/ha): 0.0
ECHCG herbicidal rating (ECHOG Barnyardgrass [17]; rate 0.062 kg/ha): 0.0
ECHCG herbicidal rating (ECHOG Barnyardgrass [17]; rate 0.125 kg/ha): 7.0
Postemergence herbicidal rating TRZAWR ([18]; 0.008 kg/ha): 2.5
Postemergence herbicidal rating TRZAWR ([18]; 0.016 kg/ha): 4.5
Postemergence herbicidal rating TRZAWR ([18]; 0.032 kg/ha): 4.5
Postemergence herbicidal rating TRZAWR ([18]; 0.062 kg/ha): 5.5
IPOHE herbicidal rating ([19]; rate 0.016 kg/ha): 0.0
IPOHE herbicidal rating ([19]; rate 0.032 kg/ha): 0.0
IPOHE herbicidal rating ([19]; rate 0.062 kg/ha): 1.0
IPOHE herbicidal rating ([19]; rate 0.125 kg/ha): 1.0
Postemergence herbicidal rating ORYSAT (ORYSAT Rice, Tebonnet [20]; 0.008 kg/ha): 0.5
Postemergence herbicidal rating ORYSAT (ORYSAT Rice, Tebonnet [20]; 0.016 kg/ha): 2.0
Postemergence herbicidal rating ORYSAT (ORYSAT Rice, Tebonnet [20]; 0.032 kg/ha): 3.0
Postemergence herbicidal rating ORYSAT (ORYSAT Rice, Tebonnet [20]; 0.062 kg/ha): 5.5
GLXMAW herbicidal rating (GLXMAW Soybean, Williams [21]; rate 0.016 kg/ha): 0.0
GLXMAW herbicidal rating (GLXMAW Soybean, Williams [21]; rate 0.032 kg/ha): 0.0
GLXMAW herbicidal rating (GLXMAW Soybean, Williams [21]; rate 0.062 kg/ha): 0.0
GLXMAW herbicidal rating (GLXMAW Soybean, Williams [21]; rate 0.125 kg/ha): 0.0
Postemergence herbicidal rating AMBEL (AMBEL Ragweed, Common [22]; 0.008 kg/ha): 9.0
Postemergence herbicidal rating AMBEL (AMBEL Ragweed, Common [22]; 0.016 kg/ha): 9.0
Postemergence herbicidal rating AMBEL (AMBEL Ragweed, Common [22]; 0.032 kg/ha): 9.0
Postemergence herbicidal rating AMBEL (AMBEL Ragweed, Common [22]; 0.062 kg/ha): 9.0
Postemergence herbicidal rating CASOB (CASOB Sicklepod [23]; 0.008 kg/ha): 0.0
Postemergence herbicidal rating CASOB (CASOB Sicklepod [23]; 0.016 kg/ha): 0.0
Postemergence herbicidal rating CASOB (CASOB Sicklepod [23]; 0.032 kg/ha): 1.0
Postemergence herbicidal rating CASOB (CASOB Sicklepod [23]; 0.062 kg/ha): 3.0
Postemergence herbicidal rating ABUTH (ABUTH Velvetleaf [24]; 0.008 kg/ha): 9.0
Postemergence herbicidal rating ABUTH (ABUTH Velvetleaf [24]; 0.016 kg/ha): 9.0
Postemergence herbicidal rating ABUTH (ABUTH Velvetleaf [24]; 0.032 kg/ha): 9.0
Postemergence herbicidal rating ABUTH (ABUTH Velvetleaf [24]; 0.062 kg/ha): 9.0
